Data: patent US20230210834A1, “RNA METHYLTRANSFERASE INHIBITOR, SCREENING METHOD THEREFOR, ANTI-CANCER AGENT EFFICACY ASSESSMENT MARKER, AND KIT FOR EFFECTIVELY PREDICTING FTSJ1 INHIBITOR” (National University Corporation Okayama University, priority 2019, published 2023)

Tested on: 39 types of human cancer cell lines (JFCR39)
Assay: Cell line panel (JFCR39) cell proliferation, sulforhodamine B, GI50
Assay type: cell-based
Protocol: In order to extract genes that prescribe the sensitivity and resistance with respect to the FTSJ1 inhibitors, PVZF2001 was used to proceed with the analysis with a cell line panel (JFCR39). […] The GI50 value is defined, based on the number of cells before drug exposure, as a concentration at which the increase is inhibited by 50% by drug treatment, with the increase in a sample cultured for 48 hours without drug treatment (negative control) taken as 100%. In order to extract the target gene clusters, a COMPARE analysis was first performed using gene expression and the Log GI50 values in all of the cell lines. The gene clusters of SEQ ID NOs: 14 to 28 were then identified as FTSJ1 inhibitor resistance-related genetic markers, while the gene clusters of SEQ ID NOs: 34 to 47 were identified as FTSJ1 inhibitor sensitive-related genetic markers. […] The gene clusters of SEQ ID NOs: 29 to 33 were then identified as FTSJ1 inhibitor resistance-related genetic markers, while the gene clusters of SEQ ID NOs: 48 to 56 were identified as FTSJ1 inhibitor sensitive-related genetic markers. Using these genetic markers, a database of gene expression information (TCGA) obtained from patient samples was analyzed. […] That is, the results reveal that the FTSJ1 gene expression level itself also represents sensitivity and resistance with respect to the FTSJ1 inhibitors (SEQ ID NO: 57).

Measured: sensitivity / resistance of cell line (Log GI50, FIG. 4A)

CC(C)c1cc(C(C)C)c(S(=O)(=O)CC2CC(C)(C)CC(C)(C)C2)c(C(C)C)c1 [PVZF2001]
high resistance: NCI-H23, 48 hours | SNB-78, 48 hours
high sensitivity: DMS114, 48 hours | NCI-H522, 48 hours | SF-539, 48 hours | SNB-75, 48 hours | U251, 48 hours
